Laboratory results: patent US3939043A, “Antibiotics designated XK-88 series and process for production thereof” (Abbott Laboratories, priority 1973, dated 1976)
Values after ≈ are worked out from the molar mass of the structure shown. Like-named read-outs stand apart in the source and are kept apart here.

How the values were obtained:
Escherichia coli ATCC 26 = test: In vitro antibacterial spectrum by agar dilution method (pH 8.0); assay type: cell-based
Escherichia coli KY 8348 = test: as above; assay type: cell-based; settings: KY8348, Escherichia coli KY 8348 (resistant to Streptomycin and Gentamicin), read-out: Minimum Inhibitory Concentration (M.I.C.)
[1] = test system: Staphylococcus aureus KY 8953; test: as above; assay type: cell-based
[2] = test system: Staphylococcus aureus KY 8942; test: as above; assay type: cell-based
[3] = test system: Staphylococcus aureus KY 8950; test: as above; assay type: cell-based; settings: KY8950, Staphylococcus aureus KY 8950 (resistant to Streptomycin, Tetracycline, Penicillin and sulfonamide), read-out: Minimum Inhibitory Concentration (M.I.C.)
[4] = test system: Klebsiella pneumoniae ATCC 10031; test: as above; assay type: cell-based; settings: ATCC10031, read-out: Minimum Inhibitory Concentration (M.I.C.)
[5] = test system: Gram-positive and Gram-negative bacteria; test: Antibacterial activity (summary of Table 4); assay type: cell-based; settings: versus the said known antibiotics; from Table 4
Text: (§1) The in vitro antibacterial spectra of the XK-88 antibiotics by agar dilution method (pH 8.0) is illustrated in the following Table 4: […]

[6] = test system: Bacillus cereus var. mycoides ATCC 9463; test: microbe, parasite or virus in culture; assay type: cell-based; settings: ATCC9463, pH 8, read-out: Minimum Inhibitory Concentration (M.I.C.)
Escherichia coli = test: Antibacterial activity against resistant bacteria (summary of Table 4); assay type: cell-based; settings: Escherichia coli normally resistant to various known antibiotics
Text: as §1

Staphylococcus aureus = test: as above; assay type: cell-based; settings: Staphylococcus aureus normally resistant to various known antibiotics
Text: as §1

[7] = test system: Bacillus subtilis No. 10703; test: In vitro antibacterial spectrum by agar dilution method (pH 8.0); assay type: cell-based
[8] = test system: Bacillus cereus ATCC 9634; test: as above; assay type: cell-based; settings: ATCC9634, read-out: Minimum Inhibitory Concentration (M.I.C.)
[9] = test system: Staphylococcus aureus ATCC 6538P; test: as above; assay type: cell-based; settings: ATCC6538P, read-out: Minimum Inhibitory Concentration (M.I.C.)
[10] = test system: Salmonella typhosa ATCC 9992; test: as above; assay type: cell-based; settings: Salmonella enterica, pH 8, read-out: Minimum Inhibitory Concentration (M.I.C.)
[11] = test system: Staphylococcus aureus KY 8956; test: as above; assay type: cell-based; settings: KY8956, Staphylococcus aureus KY 8956 (resistant to Streptomycin, Paromomycin, Tetracycline, Kanamycin, Nebramycin, Tobramycin and Erythromycin), read-out: Minimum Inhibitory Concentration (M.I.C.)
[12] = test system: Pseudomonas aeruginosa BMH No. 1; test: as above; assay type: cell-based
[13] = test system: Staphylococcus aureus KY 8957; test: as above; assay type: cell-based; settings: KY8957, Staphylococcus aureus KY 8957 (resistant to Chloramphenicol, Streptomycin, Kanamycin, Paromomycin, Nebramycin, Tobramycin and Tetracycline), read-out: Minimum Inhibitory Concentration (M.I.C.)
Escherichia coli KY 8327 = test: as above; assay type: cell-based; settings: KY8327, Escherichia coli KY 8327 (resistant to Kanamycin, Gentamicin, Nebramycin and Tobramycin), read-out: Minimum Inhibitory Concentration (M.I.C.)
[14] = test system: Shigella sonnei ATCC 9290; test: as above; assay type: cell-based; settings: ATCC9290, read-out: Minimum Inhibitory Concentration (M.I.C.)
Text: (§2) The in vitro antibacterial spectra of the XK-88 antibiotics by agar dilution method (pH 8.0) is illustrated in the following Table 4:
(§3) (Minimum Inhibitory Concentration (μg/ml)
(§4) by agar dilution method (pH 8.0)

Escherichia coli KY 8331 = test: as above; assay type: cell-based; settings: KY8331, Escherichia coli KY 8331 (resistant to Kanamycin, Ribostamycin, Neomycin, Paromomycin, Lividomycin and Nebramycin), read-out: Minimum Inhibitory Concentration (M.I.C.)
Text: as §2, §3, §4

Escherichia coli KY 8310 = test: as above; assay type: cell-based; settings: KY8310, Escherichia coli KY 8310 (resistant to Chloramphenicol, Streptomycin, Kanamycin, Gentamicin, Paromomycin, Nebramycin, Tobramycin, Spectinomycin and Tetracycline), read-out: Minimum Inhibitory Concentration (M.I.C.)
Text: as §2, §3, §4

Escherichia coli KY 8314 = test: as above; assay type: cell-based; settings: KY8314, Escherichia coli KY 8314 (resistant to Streptomycin), read-out: Minimum Inhibitory Concentration (M.I.C.)
Text: as §2, §3, §4

[15] = test system: Streptococcus faecalis ATCC 10541; test: as above; assay type: cell-based; settings: Enterococcus faecalis
[16] = test system: Proteus vulgaris ATCC 6897; test: as above; assay type: cell-based
Escherichia coli KY 8334 = test: as above; assay type: cell-based; settings: KY8334, Escherichia coli KY 8334 (resistant to Kanamycin and Tobramycin), read-out: Minimum Inhibitory Concentration (M.I.C.)
Solubility = assay type: physicochemical; settings: for solubility in organic solvents: acetone, ethyl acetate, ethyl ether, chloroform, etc.
[17] = Staphylococcus aureus, KY8953, pH 8, read-out: Minimum Inhibitory Concentration (M.I.C.)
[18] = ATCC10541, pH 8, read-out: Minimum Inhibitory Concentration (M.I.C.)
[19] = ATCC26, Escherichia coli ATCC 26, agar dilution, pH 8.0, read-out: Minimum Inhibitory Concentration (M.I.C.)
[20] = KY8953, Staphylococcus aureus KY 8953 (resistant to Streptomycin, Kanamycin, Paromycin, Neomycin, Tetracycline, Erythromycin), agar dilution, pH 8.0, read-out: Minimum Inhibitory Concentration (M.I.C.)
[21] = KY8942, Staphylococcus aureus KY 8942 (resistant to Kanamycin, Paromomycin, Streptomycin, Gentamicin and Nebramycin), agar dilution, pH 8.0, read-out: Minimum Inhibitory Concentration (M.I.C.)
[22] = Bacillus subtilis No. 10703, agar dilution, pH 8.0, read-out: Minimum Inhibitory Concentration (M.I.C.)
[23] = BMHNO.1, Pseudomonas aeruginosa BMH No. 1, agar dilution, pH 8.0, read-out: Minimum Inhibitory Concentration (M.I.C.)
[24] = ATCC6897, Proteus vulgaris ATCC 6897, agar dilution, pH 8.0, read-out: Minimum Inhibitory Concentration (M.I.C.)

Compound | MIC (Escherichia coli KY 8348) [µg/mL] | MIC [3] [µg/mL] | MIC [4] [µg/mL] | cross resistance with known antibiotics [5] | MIC [6] [µg/mL] | antibacterial activity (Escherichia coli) | antibacterial activity (Staphylococcus aureus) | MIC [8] [µg/mL] | MIC [9] [µg/mL] | MIC [10] [µg/mL] | MIC [11] [µg/mL] | MIC [13] [µg/mL] | MIC (Escherichia coli KY 8327) [µg/mL] | MIC [14] [µg/mL] | MIC (Escherichia coli KY 8331) [µg/mL] | MIC (Escherichia coli KY 8310) [µg/mL] | MIC (Escherichia coli KY 8314) [µg/mL] | MIC (Escherichia coli KY 8334) [µg/mL] | solubility in organic solvents (Solubility) | solubility in methanol and ethanol (Solubility) | further results
NC1CC(N)C(OC2OC(CO)C(O)C(O)C2N)C(O)C1OC1OCC(O)C(O)C1N (stereo not shown) [XK-88-1] | 13.5 (≈ 29.7 µM) | 13.1 (≈ 28.8 µM) | 13.1 (≈ 28.8 µM) | complete cross resistance does not always occur | 3.3 (≈ 7.26 µM) | strong antibacterial activity | strong antibacterial activity | 6.6 (≈ 14.5 µM) | 6.6 (≈ 14.5 µM) | 26.1 (≈ 57.4 µM) | 208 (≈ 459 µM) | 104 (≈ 229 µM) | 13.1 (≈ 28.8 µM) | 52.1 (≈ 115 µM) | > 416 | > 416 | 52.1 (≈ 115 µM) | 1.65 (≈ 3.63 µM) |  |  | MIC (Escherichia coli ATCC 26; Escherichia coli, ATCC26, pH 8, read-out: Minimum Inhibitory Concentration (M.I.C.)): 26.1 µg/mL (≈ 57.4 µM); MIC [1, 17]: > 416 µg/mL; MIC ([2]; Staphylococcus aureus, KY8942, pH 8, read-out: Minimum Inhibitory Concentration (M.I.C.)): 52.1 µg/mL (≈ 115 µM); MIC ([7]; Bacillus subtilis, NO.10703, pH 8, read-out: Minimum Inhibitory Concentration (M.I.C.)): 52.1 µg/mL (≈ 115 µM); MIC ([12]; Pseudomonas aeruginosa, BMHNO.1, pH 8, read-out: Minimum Inhibitory Concentration (M.I.C.)): > 416 µg/mL; MIC [15, 18]: > 416 µg/mL; MIC ([16]; Proteus vulgaris, ATCC6897, pH 8, read-out: Minimum Inhibitory Concentration (M.I.C.)): 416 µg/mL (≈ 916 µM)
NCC1CC(O)C(N)C(OC2C(N)CC(N)C(O)C2O)O1 (stereo not shown) [XK-88-2] | 0.18 (≈ 0.588 µM) | 0.35 (≈ 1.14 µM) | 0.18 (≈ 0.588 µM) | complete cross resistance does not always occur | 0.7 (≈ 2.28 µM) | strong antibacterial activity | strong antibacterial activity | 2.7 (≈ 8.81 µM) | 0.18 (≈ 0.588 µM) | 0.7 (≈ 2.28 µM) | 0.09 (≈ 0.294 µM) | 0.09 (≈ 0.294 µM) | 0.18 (≈ 0.588 µM) | 1.4 (≈ 4.57 µM) | 41.7 (≈ 136 µM) | > 83.3 | 1.4 (≈ 4.57 µM) | 5.3 (≈ 17.3 µM) |  |  | MIC (Escherichia coli ATCC 26; [19]): 0.35 µg/mL (≈ 1.14 µM); MIC [1, 20]: 0.35 µg/mL (≈ 1.14 µM); MIC [2, 21]: 1.4 µg/mL (≈ 4.57 µM); MIC [7, 22]: 0.35 µg/mL (≈ 1.14 µM); MIC [12, 23]: 10.5 µg/mL (≈ 34.3 µM); MIC [15, 18]: > 83.3 µg/mL; MIC [16, 24]: 1.4 µg/mL (≈ 4.57 µM)
NCC1OC(OC2C(N)CC(N)C(OC3OCC(O)C(O)C3N)C2O)C(N)C(O)C1O (stereo not shown) [XK-88-3] | 0.09 (≈ 0.198 µM) | 0.35 (≈ 0.772 µM) | 0.05 (≈ 0.11 µM) | complete cross resistance does not always occur | 2.7 (≈ 5.95 µM) | strong antibacterial activity | strong antibacterial activity | 2.7 (≈ 5.95 µM) | 0.18 (≈ 0.397 µM) | 0.18 (≈ 0.397 µM) | 5.3 (≈ 11.7 µM) | 5.3 (≈ 11.7 µM) | 0.05 (≈ 0.11 µM) | 0.35 (≈ 0.772 µM) | 41.7 (≈ 92 µM) | 83.3 (≈ 184 µM) | 0.35 (≈ 0.772 µM) | 5.3 (≈ 11.7 µM) |  |  | MIC (Escherichia coli ATCC 26; [19]): 0.18 µg/mL (≈ 0.397 µM); MIC [1, 17]: > 83.3 µg/mL; MIC [2, 21]: 1.4 µg/mL (≈ 3.09 µM); MIC [7, 22]: 2.7 µg/mL (≈ 5.95 µM); MIC [12, 23]: > 416 µg/mL; MIC [15, 18]: > 83.3 µg/mL; MIC [16, 24]: 1.4 µg/mL (≈ 3.09 µM)
COC1COC(OC2C(N)CC(N)C(OC3OC(CN)CC(O)C3N)C2O)C(N)C1N (stereo not shown) [XK-88-5] | 2.7 (≈ 5.99 µM) | 0.17 (≈ 0.377 µM) | < 0.05 | complete cross resistance does not always occur | 0.66 (≈ 1.46 µM) | strong antibacterial activity | strong antibacterial activity | 1.31 (≈ 2.91 µM) | 0.07 (≈ 0.155 µM) | 0.09 (≈ 0.2 µM) | < 0.02 | 0.04 (≈ 0.0888 µM) | 0.04 (≈ 0.0888 µM) | 0.14 (≈ 0.311 µM) | 20.8 (≈ 46.2 µM) | > 41.6 | 0.33 (≈ 0.732 µM) | 0.66 (≈ 1.46 µM) |  |  | MIC (Escherichia coli ATCC 26; [19]): 0.08 µg/mL (≈ 0.178 µM); MIC [1, 20]: 0.17 µg/mL (≈ 0.377 µM); MIC [2, 21]: 0.66 µg/mL (≈ 1.46 µM); MIC [7, 22]: 0.04 µg/mL (≈ 0.0888 µM); MIC [12, 23]: 8.3 µg/mL (≈ 18.4 µM); MIC ([15]; ATCC10541, Streptococcus faecalis ATCC 10541, agar dilution, pH 8.0, read-out: Minimum Inhibitory Concentration (M.I.C.)): 10.5 µg/mL (≈ 23.3 µM); MIC [16, 24]: 0.53 µg/mL (≈ 1.18 µM)
NC1CC(N)C(OC2OC(CO)C(O)C(O)C2N)C(O)C1OC1OCC(O)C(O)C1N (stereo not shown) [sulfate of XK-88-1] |  |  |  |  |  |  |  |  |  |  |  |  |  |  |  |  |  |  | insoluble | poorly soluble | solubility in water (Solubility): very soluble
NCC1CC(O)C(N)C(OC2C(N)CC(N)C(O)C2O)O1 (stereo not shown) [sulfate of XK-88-2] |  |  |  |  |  |  |  |  |  |  |  |  |  |  |  |  |  |  | insoluble | poorly soluble | solubility in water (Solubility): very soluble
NCC1OC(OC2C(N)CC(N)C(OC3OCC(O)C(O)C3N)C2O)C(N)C(O)C1O (stereo not shown) [sulfate of XK-88-3] |  |  |  |  |  |  |  |  |  |  |  |  |  |  |  |  |  |  | insoluble | poorly soluble | solubility in water (Solubility): very soluble
COC1COC(OC2C(N)CC(N)C(OC3OC(CN)CC(O)C3N)C2O)C(N)C1N (stereo not shown) [sulfate of XK-88-5] |  |  |  |  |  |  |  |  |  |  |  |  |  |  |  |  |  |  | insoluble | poorly soluble | solubility in water (Solubility): very soluble
